Data published in PubChem BioAssay AID1996.
≈ marks a conversion by molar mass, not a printed value.

Details: buffer; pH 7.4; 200.0 µM

`O=C(O)Cn1c(=O)n(Cc2ccccc2)c2ccccc21` and `c1ccc(CN2CCN(Cc3c[nH]c4ccccc34)CC2)cc1` cannot be ordered by solubility kinetic: > 42.3 µg/mL for the first, > 45.8 µg/mL for the second.

Going from `Cc1cc(NC(=O)c2cc(C(C)(C)C)oc2C)no1` to `COc1ccc(Br)c(C(=O)NC(C)(C)CO)c1`, the solubility kinetic rises from 0.9 µg/mL (≈ 3.43 µM) to > 45.3 µg/mL.

Compared with `NS(=O)(=O)c1cccc(NC(=O)COC(=O)c2ccccc2SCC(=O)N2CCCC2)c1`, `CS(=O)(=O)N(Cc1ccccc1Cl)c1ccc(C(=O)N2CCCC2)cc1` is lower in solubility kinetic: > 71.6 µg/mL for the first, 55.7 µg/mL (≈ 142 µM) for the second.

`O=C(c1cc(Br)c(Br)s1)N1CCc2ccccc2C1` and `COc1ccc(/C=C/C(=O)N2CCCc3ccccc32)c(OC)c1` are within 1.5-fold of each other in solubility kinetic: 7 µg/mL (≈ 17.5 µM) for the first, 6.7 µg/mL (≈ 20.7 µM) for the second.

`Cl.O[C@@H](c1cc(C(F)(F)F)nc2c(C(F)(F)F)cccc12)[C@H]1CCCCN1` and `COc1cccc(-c2noc(CCC(=O)NC3CCCC3)n2)c1` cannot be ordered by solubility kinetic: > 62.2 µg/mL for the first, > 47.3 µg/mL for the second.

First: COc1ccc(C(CNc2ncnc3sccc23)N(C)C)cc1OC (stereo not given)
Second: COc1ccc(CNC(=O)COC(=O)c2sccc2C)cc1OC
The solubility kinetic of the first is 2.9-fold higher: 35.5 µg/mL (≈ 99 µM) for the first, 12.4 µg/mL (≈ 35.5 µM) for the second.

Compared with `CN(C)CCN1CC(O)=C(c2nc3ccccc3s2)C1=N`, `CCc1sc(NC(=O)C(C)C)nc1-c1ccccc1` is 2-fold lower in solubility kinetic: 31.5 µg/mL (≈ 104 µM) for the first, 15.6 µg/mL (≈ 56.9 µM) for the second.

First: Cc1ccc([N+](=O)[O-])cc1NC(=S)NCCc1ccccc1
Second: Cn1c(C(=O)NCCc2ccccc2)cc(=O)n(C)c1=O
The solubility kinetic of the first is lower: 39.4 µg/mL (≈ 125 µM) for the first, > 43.1 µg/mL for the second.

`CC1(C)CC(=O)C(C2=NC3(CCCCCC3)Cc3ccccc32)=C(O)C1` and `Cc1[nH]c2ccccc2c1C(=O)C(=O)N(C)C1CCCCC1` cannot be ordered by solubility kinetic: 49.8 µg/mL (≈ 142 µM) for the first, > 44.8 µg/mL for the second.

Going from `Cc1ccc(NC(=O)Cc2ccsc2)cc1Cl` to `NC(=O)c1ccccc1NC(=O)Cc1cccs1`, the solubility kinetic rises from 4.6 µg/mL (≈ 17.3 µM) to 38.3 µg/mL (≈ 147 µM) (8.3-fold).

First: CNC(=O)C1CC(=O)N(CCc2ccc(C)cc2)C1 (stereo not given)
Second: Cc1c(Cl)cccc1NC(=O)C1CCCN(S(C)(=O)=O)C1 (stereo not given)
The solubility kinetic of the first is higher: > 39.1 µg/mL for the first, 7.3 µg/mL (≈ 22.1 µM) for the second.

Going from `COc1ccc(NC(=O)O/N=C/c2ccncc2)cc1` to `COc1ccc(CCNC(=O)COC(=O)/C=C/c2ccc3c(c2)OCO3)cc1`, the solubility kinetic falls from > 40.7 µg/mL to 2.2 µg/mL (≈ 5.74 µM).

`NC(=O)C1CCCN(C(=O)CCC(=O)c2cccs2)C1` (stereo not given) and `O=C(NC1CCCCCC1)C1CCCN(c2ncccn2)C1` (stereo not given) cannot be ordered by solubility kinetic: > 44.2 µg/mL for the first, > 45.4 µg/mL for the second.

`CN=C(C)/C(C(=O)OC)=C(/O)c1c(F)cccc1F` and `COc1ccccc1NC(=O)N1CCN(C)CC1` are within 1.5-fold of each other in solubility kinetic: 25.9 µg/mL (≈ 96.2 µM) for the first, 30.8 µg/mL (≈ 124 µM) for the second.

First: O=c1[nH]c2ccccc2nc1-c1ccc(Cl)cc1
Second: O=C1Nc2ccccc2/C1=C/c1ccccc1Cl
The solubility kinetic of the first is lower: < 0.3 µg/mL for the first, 3.2 µg/mL (≈ 12.5 µM) for the second.

Compared with `O=C(COc1ncnc2ccccc12)NCCc1ccc(F)cc1`, `O=C(CCN1C(=O)c2ccccc2C1=O)NCc1ccc(F)cc1` is higher in solubility kinetic: 41.9 µg/mL (≈ 129 µM) for the first, > 48.9 µg/mL for the second.

First: O=C(CCS(=O)(=O)Cc1ccccc1)NCCc1ccccc1
Second: O=C(NCCS(=O)(=O)NCC1CCCO1)c1ccccc1 (stereo not given)
The solubility kinetic of the first is lower: 11.9 µg/mL (≈ 35.9 µM) for the first, > 46.9 µg/mL for the second.

`CC1CCCCC1NC(=O)c1ccco1` (stereo not given) and `O=C(COc1ncnc2sccc12)NC1CCCCC1` cannot be ordered by solubility kinetic: > 31.1 µg/mL for the first, > 43.7 µg/mL for the second.

`O=C(COC(=O)c1nsc(Cl)c1Cl)NC1CCCC1` and `O=C(CN1CCOCC1)Nc1nc(-c2ccc(Cl)cc2)cs1` cannot be ordered by solubility kinetic: > 48.5 µg/mL for the first, > 50.7 µg/mL for the second.

Going from `CCOc1cccc(C(=O)Nc2cc(C)ccc2NC(=O)c2ccco2)c1` to `CC(C)(C)c1ccc(C(=O)Nc2ccc(Oc3cccnc3)nc2)cc1`, the solubility kinetic falls from 22 µg/mL (≈ 60.4 µM) to 14.1 µg/mL (≈ 40.6 µM) (1.6-fold).

Going from `CCOC(=O)N1CCN(c2cc(NCCO)c([N+](=O)[O-])c3nonc23)CC1` to `Cc1cccc(N2CCN(Cc3nc(CC4CC4)no3)CC2)n1`, the solubility kinetic rises from 5.9 µg/mL (≈ 15.5 µM) to 41.1 µg/mL (≈ 131 µM) (7-fold).

Compared with `O=C(O)c1ccc(S(=O)(=O)N2CCOCC2)o1`, `CC(C)c1ccc(S(=O)(=O)N2CCN(C(=O)C3=COCCO3)CC2)cc1` is 1.9-fold lower in solubility kinetic: 33.9 µg/mL (≈ 130 µM) for the first, 18.3 µg/mL (≈ 48.1 µM) for the second.

First: Cc1cnc(C(=O)OCc2cc(=O)n3c(C)cccc3n2)cn1
Second: Cc1ccc(OCc2ccccc2Br)c([N+](=O)[O-])n1
The solubility kinetic of the first is higher: > 46.5 µg/mL for the first, 1.7 µg/mL (≈ 5.26 µM) for the second.

Going from `Cc1cccnc1NC(=S)NCc1ccco1` to `COc1cccc(NC(=S)N(CCN2CCCCC2)Cc2ccco2)c1`, the solubility kinetic rises from 31.4 µg/mL (≈ 127 µM) to 47.3 µg/mL (≈ 127 µM) (1.5-fold).

`CCOC(=O)c1ccc(NS(=O)(=O)c2cn(C)cn2)cc1` and `Cc1ccc(S(=O)(=O)NC(=O)NC(C)c2ccc(F)cc2)cc1` (stereo not given) cannot be ordered by solubility kinetic: > 46.4 µg/mL for the first, > 50.5 µg/mL for the second.

Going from `O=C(COc1ccccc1)Nc1ccncc1Cl` to `Cc1nn(C)c(Oc2ccccc2)c1CCNC(=O)C(C)(C)C`, the solubility kinetic rises from 32.3 µg/mL (≈ 123 µM) to > 47.3 µg/mL.

`CC(C)(C)NCC(O)COc1cccc2c1CC(O)C(O)C2` (stereo not given) and `CC(C)C(C)(C#N)NC(=O)CN1C(=O)NC2(CCCc3ccccc32)C1=O` (stereo not given) cannot be ordered by solubility kinetic: > 46.4 µg/mL for the first, > 55.3 µg/mL for the second.

First: CN(C)c1ccc(-n2cccc2)cc1
Second: [Br-].c1ccc(-c2c[n+]3c(n2-c2ccccc2)CCC3)cc1
The solubility kinetic of the first is lower: 1.1 µg/mL (≈ 5.91 µM) for the first, > 51.2 µg/mL for the second.

`CC1(C)C2CC=C(/C=N/NC(=O)C(N)=O)C1C2` (stereo not given) and `O=C(Oc1ccc(C(=S)N2CCOCC2)cc1)c1ccccc1F` cannot be ordered by solubility kinetic: > 35.3 µg/mL for the first, 36.6 µg/mL (≈ 106 µM) for the second.

Going from `C=CCn1ccc(O)c(Cc2ccc(Cl)cc2)c1=O` to `CCCCOc1c(Br)cc(CNCCCN2CCOCC2)cc1OC.Cl`, the solubility kinetic rises from 38.6 µg/mL (≈ 140 µM) to 60.9 µg/mL (1.6-fold).
